Source: US10040838B2, “CRHR2 peptide agonists and uses thereof” (JANSSEN PHARMACEUTICA NV, priority 2008, dated 2018)
“And” between values parts separate entries of the source, which are not always exact repeats. Identical values can stand only once. No end group written: not given here.

Experiments:
human CRHR2 [1] = target: T1, human CRHR2 (Homo sapiens, UniProt Q13324); assay: cAMP assay in h-CRHR2 transfected SK-N-MC cells; assay type: cell-based; conditions: for Experimental nH / nH: Hill slope; for Experimental αmax: maximal asymptote
T1 construct: expressed in transfected cells
T1 sequence (Q13324 1-411): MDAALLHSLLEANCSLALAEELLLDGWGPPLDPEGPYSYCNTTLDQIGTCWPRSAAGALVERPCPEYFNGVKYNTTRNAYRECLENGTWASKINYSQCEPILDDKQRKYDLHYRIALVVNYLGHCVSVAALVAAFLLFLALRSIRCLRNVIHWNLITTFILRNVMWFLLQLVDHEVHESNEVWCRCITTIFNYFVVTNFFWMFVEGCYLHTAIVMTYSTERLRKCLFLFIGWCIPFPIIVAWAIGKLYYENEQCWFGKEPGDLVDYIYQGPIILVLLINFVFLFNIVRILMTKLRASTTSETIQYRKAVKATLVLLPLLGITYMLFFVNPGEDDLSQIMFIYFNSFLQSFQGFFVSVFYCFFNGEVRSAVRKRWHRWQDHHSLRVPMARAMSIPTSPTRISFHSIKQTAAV
Method in brief: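 SK-N-MC cells stably expressing human CRHR2 were stimulated with peptides (1 pM-10 μM) for 60 min at 37 °C with 10 μM IBMX, then lysed in 0.5 M HCl. cAMP was quantified by competitive [125I]-cAMP antibody flash-plate assay. Hill-equation fits gave A50/pA50; Log DR was taken relative to h-SCP control in the same batch.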

human CRHR2 [2] = target: T1, human CRHR2; assay: Radioligand binding, membranes of SK-N-MC cells transfected with human CRHR2, [125I]-anti-sauvagine-30; conditions: for CRHR2 nH: Table 15, slope of competition curve
Experimental: The binding profile of h-SCP (SEQ ID NO:1) at CRHR2 was determined in radioligand binding studies in a membrane preparation of SK-N-MC cells stably transfected with human CRHR2 using [^125I]-anti-sauvagine-30 as the radiolabel. […] The solution was then homogenized with a Polytron tissue grinder at a setting of 10 and 7×3 s (Brinkmann Instruments, Westbury, N.Y.). The homogenate was centrifuged at 4° Celsius at 800×g for 5 min with the pellet being discarded. The supernatant was re-centrifuged at 26,892×g for 25 min at 4° Celsius with the final pellet being re-suspended in assay buffer. All binding assays were conducted in 96-well Multiscreen GF/B filter plates (Millipore, Billericay, Mass., U.S.A.) that were pre-soaked in assay buffer with 0.3% PEI for 1 hour. […] The bound radioactivity was separated by filtration using a Multiscreen Resist manifold (Millipore Corp., Billerica, Mass., U.S.A). The filters were washed three times with ice-cold PBS at pH 7.5 and radioactivity retained on the filters was quantified by its liquid scintillation measured by a TopCount counter (Packard BioScience, Boston, Mass., U.S.A). All experiments were performed in triplicate. Data from individual competition curves were expressed as the percentage of specific [^125I]-anti-sauvagine-30 or)[^125I]-([…])-sauvagine binding (B) within each experiment.

[3] = CRHR2, Table 11, listed as h-SRP
[4] = CRHR2, Table 11, listed as h-SCP

Experimental nH (human CRHR2 [1]; CRHR2, Table 11) | Experimental αmax (human CRHR2 [1]; CRHR2, Table 11) | CRHR2 nH (human CRHR2 [2]) | Experimental nH (human CRHR2 [1]; [3]) | Experimental αmax (human CRHR2 [1]; [3]) | Compound | Experimental pA50 (human CRHR2 [1]; CRHR2, Table 11, 1 hr at 37° Celsius, listed as h-SCP) | Experimental nH (human CRHR2 [1]; [4]) | Experimental αmax (human CRHR2 [1]; [4]) | nH (human CRHR2 [1]; Table 12) | pA50 (human CRHR2 [1]; Table 12, amidation and N-terminal deletions, 3-5 replicate experiments) | pA50 (human CRHR2 [1]; Table 14) | nH (human CRHR2 [1]; Table 14) | EC50 (human CRHR2 [1]; text b184, read-out: concentration required for 50% maximum effect (A50)) | pA50 (human CRHR2 [1]; text b201-b202, N-terminal deletions, parent in one batch) | competition curve / affinity states (human CRHR2 [2]; [125I]-anti-sauvagine-30 competition)
1.07 | 110.5 | 1.19 ± 0.14 |  |  | CC[C@H](C)[C@H](NC(=O)[C@H](CO)NC(=O)[C@H](CC(C)C)NC(=O)[C@@H]1CCCN1C(=O)[C@@H]1CCCN1C(=O)[C@H](CC(=O)O)NC(=O)[C@@H](N)CC(=O)O)C(=O)N[C@@H](CC(=O)O)C(=O)N[C@@H](CC(C)C)C(=O)N[C@H](C(=O)N[C@@H](Cc1ccccc1)C(=O)N[C@@H](Cc1c[nH]cn1)C(=O)N[C@@H](CC(C)C)C(=O)N[C@@H](CC(C)C)C(=O)N[C@@H](CCCNC(=N)N)C(=O)N[C@H](C(=O)N[C@@H](CC(C)C)C(=O)N[C@@H](CC(C)C)C(=O)N[C@@H](CCC(=O)O)C(=O)N[C@@H](CC(C)C)C(=O)N[C@@H](C)C(=O)N[C@@H](CCCNC(=N)N)C(=O)N[C@H](C(=O)N[C@@H](CCC(N)=O)C(=O)N[C@@H](CO)C(=O)N[C@@H](CCC(N)=O)C(=O)N[C@@H](CCCNC(=N)N)C(=O)N[C@@H](CCC(=O)O)C(=O)N[C@@H](CCCNC(=N)N)C(=O)N[C@@H](C)C(=O)N[C@@H](CCC(=O)O)C(=O)N[C@@H](CCC(N)=O)C(=O)N[C@@H](CC(N)=O)C(=O)N[C@@H](CCCNC(=N)N)C(=O)N[C@H](C(=O)N[C@H](C(=O)N[C@@H](Cc1ccccc1)C(=O)N[C@@H](CC(=O)O)C(=O)N[C@@H](CO)C(=O)N[C@H](C(N)=O)C(C)C)[C@@H](C)CC)[C@@H](C)CC)[C@@H](C)O)[C@@H](C)O)[C@@H](C)O [SEQ ID NO: 114, DDPPLSIDLTFHLLRTLLELARTQSQRERAEQNRIIFDSV-NH2] |  |  |  |  |  |  |  |  |  | 
 |  | 1.26 ± 0.14 | 1.08 and 1.06 and 0.99 | 113.5 and 108.7 and 98.56 | HPGSRIVLSLDVPIGLLQILLEQARARAAREQATTNARILARV-NH2 [SEQ ID NO: 117, HPGSRIVLSLDVPIGLLQILLEQARAPAAREQATTNARILARV-NH2, reference compound] |  |  |  |  |  |  |  |  |  | 

Compound | Experimental nH (human CRHR2 [1]; CRHR2, Table 11) | Experimental αmax (human CRHR2 [1]; CRHR2, Table 11) | CRHR2 nH (human CRHR2 [2]) | Experimental nH (human CRHR2 [1]; [3]) | Experimental αmax (human CRHR2 [1]; [3]) | Experimental pA50 (human CRHR2 [1]; CRHR2, Table 11, 1 hr at 37° Celsius, listed as h-SCP) | Experimental nH (human CRHR2 [1]; [4]) | Experimental αmax (human CRHR2 [1]; [4]) | nH (human CRHR2 [1]; Table 12) | pA50 (human CRHR2 [1]; Table 12, amidation and N-terminal deletions, 3-5 replicate experiments) | pA50 (human CRHR2 [1]; Table 14) | nH (human CRHR2 [1]; Table 14) | EC50 (human CRHR2 [1]; text b184, read-out: concentration required for 50% maximum effect (A50)) | pA50 (human CRHR2 [1]; text b201-b202, N-terminal deletions, parent in one batch) | competition curve / affinity states (human CRHR2 [2]; [125I]-anti-sauvagine-30 competition)
TKFTLSLDVPTNIMNLLFNIAKAKNLRAQAAANAHLMAQI-NH2 [SEQ ID NO: 1, TKFTLSLDVPTNIMNLLFNIAKAKNLRAQAAANAHLMAQI-NH2, reference compound] |  |  | 1.00 ± 0.04 |  |  | 9.41 | 0.99 and 1.04 and 1.39 and 1.55 | 99.31 and 97.53 and 116.1 and 98.2 | 1.18 | 9.41 | 9.40 | 1.26 | 0.4 nM | 9.41±0.03 | biphasic
